# Measurements published in patent US12617773B2, “Azetidin-3-ylmethanol derivatives as CCR6 receptor modulators” (Idorsia Pharmaceuticals Ltd, priority 2020, dated 2026).
# Molecular target: T1, human CCR6 (Homo sapiens, UniProt P51684)
# T1 construct: expressed in transfected cells; host or cells: HEK-293
# T1 sequence (P51684 1-374): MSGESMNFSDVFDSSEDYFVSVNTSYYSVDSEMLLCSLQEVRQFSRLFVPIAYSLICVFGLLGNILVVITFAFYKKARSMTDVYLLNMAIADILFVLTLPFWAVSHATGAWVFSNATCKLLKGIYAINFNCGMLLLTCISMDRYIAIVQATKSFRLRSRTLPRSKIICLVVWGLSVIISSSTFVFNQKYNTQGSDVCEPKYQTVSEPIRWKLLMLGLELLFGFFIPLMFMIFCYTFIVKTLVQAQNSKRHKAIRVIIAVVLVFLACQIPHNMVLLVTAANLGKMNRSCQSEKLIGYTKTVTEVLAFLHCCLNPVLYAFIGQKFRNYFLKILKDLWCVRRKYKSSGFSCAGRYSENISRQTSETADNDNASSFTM
# Test: FLIPR assay (inhibition of CCL20-induced calcium signal)
# Type: cell-based
# Details: HEK-293 cells expressing human CCR6; mean values where determined several times; read-out: FLIPR IC50
# Method in brief: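 Dye-loaded HEK-293 cells expressing human CCR6 were preincubated with compound for 30 min at room temperature in the dark, then challenged with 10 nM CCL20 (final). Fluorescence was tracked on FLIPR, and baseline-subtracted peak emission over base after agonist addition gave inhibition dose-response curves for IC50.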
row,SMILES,IC50
1,CCc1ccc([C@](O)(c2cncc(N3C[C@@H]4C[C@H]3CO4)c2)C2(C)CN(C)C2)cc1 [Example 244],274 nM
2,"CC(C)c1ccc([C@](O)(c2cncc(OCc3ccccc3)c2)C2(C)CN(C)C2)cc1 [Example 245, (R)-(5-Benzyloxy-pyridin-3-yl)-(1,3-dimethyl-azetidin-3-yl)-(4-isopropyl-phenyl)-methanol]",26 nM
3,CC(C)c1ccc([C@](O)(c2cncc(OC3CCCCC3)c2)C2(C)CN(C)C2)cc1 [Example 251],8.25 nM
4,COC1CCC(Oc2cncc([C@@](O)(c3ccc(C(C)C)cc3)C3(C)CN(C)C3)c2)C1 (stereo partly shown) [Example 253],13.1 nM
5,CC(C)c1ccc([C@](O)(c2cncc(OCc3nc(C4CC4)no3)c2)C2(C)CN(C)C2)cc1 [Example 254],19.3 nM
6,Cc1nc(C)n(CCOc2cncc([C@@](O)(c3ccc(C(C)C)cc3)C3(C)CN(C)C3)c2)n1 [Example 255],774 nM
7,CC(C)c1ccc([C@](O)(c2cncc(OCCOCc3ccccc3)c2)C2(C)CN(C)C2)cc1 [Example 258],15.5 nM
8,CC(C)c1ccc([C@](O)(c2cncc(OC3CCOCC3)c2)C2(C)CN(C)C2)cc1 [Example 259],56.7 nM
9,"CC(C)c1ccc([C@](O)(c2cncc(OC3CCC(O)CC3)c2)C2(C)CN(C)C2)cc1 (stereo partly drawn) [Example 261, 4-{5-[(R)-(1,3-Dimethyl-azetidin-3-yl)-hydroxy-(4-isopropyl-phenyl)-methyl]-pyridin-3-yloxy}-cyclohexanol]",206 nM
10,"CC(C)c1ccc([C@](O)(c2cncc(OC3CCC(C)(O)CC3)c2)C2(C)CN(C)C2)cc1 (stereo partly drawn) [Example 262, 4-{5-[(R)-(1,3-Dimethyl-azetidin-3-yl)-hydroxy-(4-isopropyl-phenyl)-methyl]-pyridin-3-yloxy}-1-methyl-cyclohexanol]",72.6 nM
11,CN1CC(C)(C(O)(c2ccc(OC(F)(F)F)cc2)c2cnc(Oc3ccccc3)nc2)C1 (stereo not shown) [Example 263],162 nM
12,CN1CC(C)(C(O)(c2ccc(OC(F)(F)F)cc2)c2ccc(OCc3ccccc3)nc2)C1 (stereo not shown) [Example 264],167 nM
13,CN1CC(C)(C(O)(c2ccc(OC(F)(F)F)cc2)c2cncc(-n3cccn3)c2)C1 (stereo not shown) [Example 265],90.6 nM
14,"CN1CC(C)(C(O)(c2ccc(OC(F)(F)F)cc2)c2cnc(F)c(N3CCCC3)c2)C1 (stereo not shown) [Example 266, (1,3-Dimethyl-azetidin-3-yl)-(6-fluoro-5-pyrrolidin-1-yl-pyridin-3-yl)-(4-trifluoromethoxy-phenyl)-methanol]",79.1 nM
15,"CN1CC(C)(C(O)(c2ccc(OC(F)(F)F)cc2)c2cnc(C#N)c(N3CCCC3)c2)C1 (stereo not shown) [Example 267, 5-[(1,3-Dimethyl-azetidin-3-yl)-hydroxy-(4-trifluoromethoxy-phenyl)-methyl]-3-pyrrolidin-1-yl-pyridine-2-carbonitrile]",103 nM
16,"CN1CC(C)(C(O)(c2ccc(OC(F)(F)F)cc2)c2ccc(OC3CCOCC3)nc2)C1 (stereo not shown) [Example 268, (1,3-Dimethyl-azetidin-3-yl)-[6-(tetrahydro-pyran-4-yloxy)-pyridin-3-yl]-(4-trifluoromethoxy-phenyl)-methanol]",99.3 nM
17,"CN1CC(C)(C(O)(c2ccc(OC(F)(F)F)cc2)c2ccc(OCC3COC3)nc2)C1 (stereo not shown) [Example 269, (1,3-Dimethyl-azetidin-3-yl)-[6-(oxetan-3-ylmethoxy)-pyridin-3-yl]-(4-trifluoromethoxy-phenyl)-methanol]",224 nM

# Now from value to compound:
row,IC50,SMILES
1,33.3 nM,"CC(C)c1ccc(C(O)(c2cncc(OCCc3ccccn3)c2)C2(C)CN(C)C2)cc1 (stereo not shown) [Example 246, (1,3-Dimethyl-azetidin-3-yl)-(4-isopropyl-phenyl)-[5-(2-pyridin-2-yl-ethoxy)-pyridin-3-yl]-methanol]"
2,250 nM,COCCOc1cncc(C(O)(c2ccc(C(C)C)cc2)C2(C)CN(C)C2)c1 (stereo not shown) [Example 247]
3,247 nM,CC(C)c1ccc(C(O)(c2cncc(OCC3COC3)c2)C2(C)CN(C)C2)cc1 (stereo not shown) [Example 248]
4,78.4 nM,CC(C)c1ccc([C@](O)(c2cncc(OCCCO)c2)C2(C)CN(C)C2)cc1 [Example 249]
5,10.9 nM,CC(C)Oc1cncc([C@@](O)(c2ccc(C(C)C)cc2)C2(C)CN(C)C2)c1 [Example 250]
6,238 nM,CC(C)c1ccc([C@](O)(c2cncc(OCC(C)(C)O)c2)C2(C)CN(C)C2)cc1 [Example 252]
7,57.8 nM,CC(C)c1ccc([C@](O)(c2cncc(OCCC(C)(C)O)c2)C2(C)CN(C)C2)cc1 [Example 256]
8,87.4 nM,COc1cncc([C@@](O)(c2ccc(C(C)C)cc2)C2(C)CN(C)C2)c1 [Example 257]
9,324 nM,"CC(C)c1ccc([C@](O)(c2cncc(OCCO)c2)C2(C)CN(C)C2)cc1 [Example 260, 2-{5-[(R)-(1,3-Dimethyl-azetidin-3-yl)-hydroxy-(4-isopropyl-phenyl)-methyl]-pyridin-3-yloxy}-ethanol]"
10,27.4 nM,"Cc1csc(-c2cncc(C(O)(c3ccc(C(C)C)cc3)C3(C)CN(C)C3)c2)n1 (stereo not shown) [Example 270, (1,3-Dimethyl-azetidin-3-yl)-(4-isopropyl-phenyl)-[5-(4-methyl-thiazol-2-yl)-pyridin-3-yl]-methanol]"
11,36.5 nM,"Cc1cnc(-c2cncc(C(O)(c3ccc(C(C)C)cc3)C3(C)CN(C)C3)c2)s1 (stereo not shown) [Example 271, (1,3-Dimethyl-azetidin-3-yl)-(4-isopropyl-phenyl)-[5-(5-methyl-thiazol-2-yl)-pyridin-3-yl]-methanol]"
12,485 nM,"COc1ncc(C(O)(c2ccc(C(C)C)cc2)C2(C)CN(C)C2)cn1 (stereo not shown) [Example 272, (1,3-Dimethyl-azetidin-3-yl)-(4-isopropyl-phenyl)-(2-methoxy-pyrimidin-5-yl)-methanol]"
13,32 nM,"CC(C)c1ccc([C@](O)(c2ccnc(N3CCCC3)c2)C2(C)CN(C)C2)cc1 [Example 273, (S)-(1,3-Dimethyl-azetidin-3-yl)-(4-isopropyl-phenyl)-(2-pyrrolidin-1-yl-pyridin-4-yl)-methanol]"
14,252 nM,CC(C)c1ccc(C(O)(c2ccnc(N3CCC[C@@H]3CO)c2)C2(C)CN(C)C2)cc1 (stereo partly shown) [Example 274]
15,67.1 nM,CC(C)c1ccc(C(O)(c2ccnc(N3CCCCC3)c2)C2(C)CN(C)C2)cc1 (stereo not shown) [Example 275]
16,413 nM,CC(C)c1ccc(C(O)(c2ccnc(N3CCOCC3)c2)C2(C)CN(C)C2)cc1 (stereo not shown) [Example 276]
17,42.2 nM,"CC(C)c1ccc([C@](O)(c2ccnc(OCC3CCOCC3)c2)C2(C)CN(C)C2)cc1 [Example 277, (S)-(1,3-Dimethyl-azetidin-3-yl)-(4-isopropyl-phenyl)-[2-(tetrahydro-pyran-4-ylmethoxy)-pyridin-4-yl]-methanol]"
18,48.9 nM,"COCCOc1cc([C@@](O)(c2ccc(C(C)C)cc2)C2(C)CN(C)C2)ccn1 [Example 278, (S)-(1,3-Dimethyl-azetidin-3-yl)-(4-isopropyl-phenyl)-[2-(2-methoxy-ethoxy)-pyridin-4-yl]-methanol]"
19,166 nM,"CCc1cc([C@@](O)(c2ccc(C(C)C)cc2)C2(C)CN(C)C2)ccn1 [Example 279, (S)-(1,3-Dimethyl-azetidin-3-yl)-(2-ethyl-pyridin-4-yl)-(4-isopropyl-phenyl)-methanol]"
20,37.4 nM,"CC(C)c1ccc([C@](O)(c2ccnc(C3CCCC3)c2)C2(C)CN(C)C2)cc1 [Example 280, (S)-(2-Cyclopentyl-pyridin-4-yl)-(1,3-dimethyl-azetidin-3-yl)-(4-isopropyl-phenyl)-methanol]"
